The values below come from the RepoRT retention time repository (doi:10.1021/es4044374).

This data set is described as follows: RP, Waters XBridge C18, 50 × 2.1 mm, 3.5 µm, 30 °C, 0.2 mL/min, estimated dead time 0.55 min; A: water + 0.1% formic acid, pH 3; B: methanol + 0.1% formic acid, pH 3; gradient (min/%B) 0/10 4/50 17/95 25/95 25.1/10 30/10. Particulars: stereoisomer not certain.
As to `FC(F)(F)c1cccc(N2CCNCC2)c1` [1-(3-(Trifluoromethyl)phenyl)piperazine], the LC retention time was 5.9 min.
As for `Clc1cccc(N2CCNCC2)c1` [1-(3-Chlorophenyl)piperazine], the LC retention time was 5.2 min.
Consider `c1ccc(CN2CCNCC2)cc1` [1-Benzylpiperazine], for which the LC retention time was 1.2 min.
As for `c1ccc2n[nH]nc2c1` [1H-Benzotriazole], the figure is 4.4 min; as for `O=c1ccn(C2OC(CO)C(O)C2(F)F)c(=O)[nH]1` (stereo not drawn) [2',2'-Difluoro-2'-deoxyuridine], 1.7 min; as for `CC(=O)OC1C(C)OC(n2cc(F)c(N)nc2=O)C1OC(C)=O` (stereo not drawn) [2',3'-di-O-acetyl-5'-deoxy-5-fluorocytidine], 5.2 min.
With `O=C(O)COc1ccc(Cl)cc1Cl` [2,4-D] the figure was 9.1 min; with `NC(=O)c1c(Cl)cccc1Cl` [2,6-Dichlorobenzamide], 4 min; with `O=S(=O)(O)c1ccc2ccc(S(=O)(=O)O)cc2c1` [2,7-Naphthalenedisulfonic acid], 1.2 min.
Consider `Nc1nc2ccccc2[nH]1` [2-Aminobenzimidazole], for which the LC retention time is 2.7 min.
As for `COC(=O)c1ccccc1S(N)(=O)=O` [2-Aminosulfonyl-benzoic acid methyl ester], the figure is 4.5 min; as for `COc1nc(C)nc(N)n1` [2-Methyl-4-amino-6-methoxy-s-triazine], 1.7 min.
With `O=S(=O)(O)c1ccc2ccccc2c1` [2-Naphthalenesulfonic acid] the figure was 5.2 min; with `CCCCCCCCn1sccc1=O` [2-Octyl-3(2H)-isothiazolone], 11.6 min; with `O=c1[nH]c(Cl)c(Cl)cc1Cl` [3,5,6-Trichloro-2-pyridinol], 9.7 min.
Regarding `O=C(O)c1cc(Br)c(O)c(Br)c1` [3,5-Dibromo-4-hydroxybenzoic acid], the LC retention time is 7.3 min.
Take `O=C(O)c1cccc(Oc2ccccc2)c1` [3-Phenoxybenzoic acid]: the LC retention time is 11.5 min.
With `OCc1cccc(Oc2ccccc2)c1` [3-Phenoxybenzylalcohol] the figure was 9.8 min; with `CCCCCCCCn1sc(Cl)c(Cl)c1=O` [4,5-Dichloro-2-n-octyl-3(2H)-isothiazolone (DCOIT)], 15.3 min.
With `CC(=O)Nc1c(C)n(C)n(-c2ccccc2)c1=O` [4-Acetamidoantipyrine] the figure was 3.7 min; with `Cc1c(N)c(=O)n(-c2ccccc2)n1C` [4-Aminoantipyrine], 2.6 min.
As for `Oc1ccc(Cl)cc1` [4-Chlorophenol], the LC retention time was 7.3 min.
Regarding `Cc1c(NC=O)c(=O)n(-c2ccccc2)n1C` [4-Formylaminoantipyrine], the LC retention time is 3.7 min.
As for `CC(C)c1ccc(N)cc1` [4-Isopropylaniline], the figure is 5.2 min; as for `Oc1ccc(C(F)(F)F)cc1` [4-Trifluoromethylphenol], 8.9 min.
With `Cn1sc(Cl)cc1=O` [5-Chloro-2-methyl-4-isothiazolin-3-one (CMI)] the figure was 3.7 min.
Regarding `O=c1[nH]cc(F)c(=O)[nH]1` [5-Fluorouracil], the LC retention time is 1 min.
As for `Cc1ccc2n[nH]nc2c1` [5-Methyl-1H-benzotriazole], the figure is 5.8 min; as for `O=C(O)C=C(F)C(F)(F)C(F)(F)C(F)(F)C(F)(F)C(F)(F)F` [6:2 fluorotelomer unsaturated carboxylic acid], 13.6 min; as for `O=C(O)C=C(F)C(F)(F)C(F)(F)C(F)(F)C(F)(F)C(F)(F)C(F)(F)C(F)(F)F` [8:2 fluorotelomer unsaturated carboxylic acid], 16.1 min.
With `NC(=O)N1c2ccccc2C(O)C(O)c2ccccc21` (stereo not drawn) [10,11-trans-Dihydroxy-10,11-dihydrocarbamazepine] the figure was 6.1 min.
As for `CC(=O)NCCCS(=O)(=O)O` [Acamprosate], the figure is 1 min.
Consider `CC1=CC(=O)NS(=O)(=O)O1` [Acesulfame], for which the LC retention time was 1.5 min.
As for `CC(=NC#N)N(C)Cc1ccc(Cl)nc1` [Acetamiprid], the figure is 5.3 min.
As for `CCOCN(C(=O)CS(=O)(=O)O)c1c(C)cccc1CC` [Acetochlor ESA], the figure is 7.7 min.
As for `CCOCN(C(=O)C(=O)O)c1c(C)cccc1CC` [Acetochlor OXA], the LC retention time was 7.5 min.
With `CCOCN(C(=O)CCl)c1c(C)cccc1CC` [Acetochlor], the LC retention time was 11.7 min.
In the case of `CCc1cccc(CC)c1N(COC)C(=O)CS(=O)(=O)O` [Alachlor ESA], the LC retention time is 7.7 min.
As for `CCc1cccc(CC)c1N(COC)C(=O)C(=O)O` [Alachlor OXA], the figure is 7.4 min; as for `CCc1cccc(CC)c1N(COC)C(=O)CCl` [Alachlor], 11.7 min.
Take `CC(C)(C)NCC(O)c1ccc(O)c(CO)c1` (stereo not drawn) [Albuterol]: the LC retention time is 2 min.
For the compound `Cc1c(N(C)C)c(=O)n(-c2ccccc2)n1C` [Aminopyrine], the LC retention time was 2.6 min.
On to `CCN1CCCC1CNC(=O)c1cc(S(=O)(=O)CC)c(N)cc1OC` (stereo not drawn) [Amisulpride], for which the LC retention time is 3.8 min.
On to `Cc1ccc(N=CN(C)C=Nc2ccc(C)cc2C)c(C)c1` [Amitraz], for which the LC retention time is 15.4 min.
With `CN(C)CCC=C1c2ccccc2CCc2ccccc21` [Amitriptyline] the figure was 8.6 min; with `CC(N)Cc1ccccc1` (stereo not drawn) [Amphetamine], 3.5 min; with `Cc1cc(=O)n(-c2ccccc2)n1C` [Antipyrine], 4.6 min.
Take `COC(=O)C(Cc1ccccc1)NC(=O)C(N)CC(=O)O` (stereo not drawn) [Aspartame]: the LC retention time is 4.8 min.
With `COC(=O)NS(=O)(=O)c1ccc(N)cc1` [Asulam] the figure was 2.4 min; with `CC(C)NCC(O)COc1ccc(CC(=O)O)cc1` (stereo not drawn) [Atenolol acid], 3.8 min; with `NCC(O)COc1ccc(CC(N)=O)cc1` (stereo not drawn) [Atenolol-desisopropyl], 1 min.
With `CC(C)NCC(O)COc1ccc(CC(N)=O)cc1` (stereo not drawn) [Atenolol] the figure was 2 min; with `CNCCC(Oc1ccccc1C)c1ccccc1` (stereo not drawn) [Atomoxetine], 8 min; with `CC(C)c1c(C(=O)Nc2ccccc2)c(-c2ccccc2)c(-c2ccc(F)cc2)n1CCC(O)CC(O)CC(=O)O` (stereo not drawn) [Atorvastatin], 12.4 min.
Turning to `CCNc1nc(NC(C)C)nc(OC)n1` [Atraton], the LC retention time is 5.7 min.
With `CCNc1nc(NC(C)C)[nH]c(=O)n1` [Atrazine-2-hydroxy] the figure was 4.4 min; with `CC(C)Nc1nc(N)[nH]c(=O)n1` [Atrazine-desethyl-2-hydroxy], 1.4 min; with `CC(C)Nc1nc(N)nc(Cl)n1` [Atrazine-desethyl], 5.6 min.
As to `CCNc1nc(N)nc(Cl)n1` [Atrazine-desisopropyl], the LC retention time was 4.3 min.
`CCNc1nc(Cl)nc(NC(C)C)n1` [Atrazine]: the LC retention time is 8.3 min.
With `CCC1OC(=O)C(C)C(OC2CC(C)(OC)C(O)C(C)O2)C(C)C(OC2OC(C)CC(N(C)C)C2O)C(C)(O)CC(C)CN(C)C(C)C(O)C1(C)O` (stereo not drawn) [Azithromycin] the figure was 5.9 min; with `COC=C(C(=O)O)c1ccccc1Oc1cc(Oc2ccccc2C#N)ncn1` [Azoxystrobin (free acid)], 8.8 min; with `COC=C(C(=O)OC)c1ccccc1Oc1cc(Oc2ccccc2C#N)ncn1` [Azoxystrobin], 9.9 min.
For `CC(C)N1C(=O)c2ccccc2NS1(=O)=O` [Bentazone], the LC retention time is 7.5 min.
With `O=c1[nH]sc2ccccc12` [Benzisothiazolone (BIT)] the figure was 5.1 min; with `COc1ccc(C(=O)c2ccccc2)c(O)c1` [Benzophenone-3], 12.1 min.
With `c1ccc2scnc2c1` [Benzothiazole] the figure was 6.6 min; with `CN1C2CCC1C(C(=O)O)C(OC(=O)c1ccccc1)C2` (stereo not drawn) [Benzoylecgonine], 4.6 min.
As for `CC(C)(Oc1ccc(CCNC(=O)c2ccc(Cl)cc2)cc1)C(=O)O` [Bezafibrate], the figure is 10.6 min.
Consider `CC(O)(CS(=O)(=O)c1ccc(F)cc1)C(=O)Nc1ccc(C#N)c(C(F)(F)F)c1` (stereo not drawn) [Bicalutamide], for which the LC retention time is 9.9 min.
Turning to `O=P(O)(OCCC(F)(F)C(F)(F)C(F)(F)C(F)(F)C(F)(F)C(F)(F)C(F)(F)C(F)(F)F)OCCC(F)(F)C(F)(F)C(F)(F)C(F)(F)C(F)(F)C(F)(F)C(F)(F)C(F)(F)F` [Bisperfluorodecyl phosphate], the LC retention time was 20.4 min.
As for `O=P(O)(OCCC(F)(F)C(F)(F)C(F)(F)C(F)(F)C(F)(F)C(F)(F)F)OCCC(F)(F)C(F)(F)C(F)(F)C(F)(F)C(F)(F)C(F)(F)F` [Bisperfluorooctyl phosphate], the LC retention time is 18.1 min.
Regarding `CC(C)(c1ccc(O)cc1)c1ccc(O)cc1` [Bisphenol A], the LC retention time is 14 min.
Consider `O=C(Nc1ccccc1-c1ccc(Cl)cc1)c1cccnc1Cl` [Boscalid], for which the LC retention time was 10.5 min.
As for `CCC(C)n1c(=O)[nH]c(C)c(Br)c1=O` (stereo not drawn) [Bromacil], the figure is 7 min.
With `N#Cc1cc(Br)c(O)c(Br)c1` [Bromoxynil] the figure was 8.3 min; with `CC(NC(C)(C)C)C(=O)c1cccc(Cl)c1` (stereo not drawn) [Bupropion], 5.8 min; with `Cn1c(=O)c2c(ncn2C)n(C)c1=O` [Caffeine], 4 min.
